These compounds were tested against T1, TANK binding kinase (TBK1) (Homo sapiens, UniProt Q9UHD2) (assay: TBK1 kinase test (384-well flashplate)). Settings: 0.6 nM TBK1, 10 μM ATP, 30° C., 120 min.
T1 sequence (Q9UHD2 1-729): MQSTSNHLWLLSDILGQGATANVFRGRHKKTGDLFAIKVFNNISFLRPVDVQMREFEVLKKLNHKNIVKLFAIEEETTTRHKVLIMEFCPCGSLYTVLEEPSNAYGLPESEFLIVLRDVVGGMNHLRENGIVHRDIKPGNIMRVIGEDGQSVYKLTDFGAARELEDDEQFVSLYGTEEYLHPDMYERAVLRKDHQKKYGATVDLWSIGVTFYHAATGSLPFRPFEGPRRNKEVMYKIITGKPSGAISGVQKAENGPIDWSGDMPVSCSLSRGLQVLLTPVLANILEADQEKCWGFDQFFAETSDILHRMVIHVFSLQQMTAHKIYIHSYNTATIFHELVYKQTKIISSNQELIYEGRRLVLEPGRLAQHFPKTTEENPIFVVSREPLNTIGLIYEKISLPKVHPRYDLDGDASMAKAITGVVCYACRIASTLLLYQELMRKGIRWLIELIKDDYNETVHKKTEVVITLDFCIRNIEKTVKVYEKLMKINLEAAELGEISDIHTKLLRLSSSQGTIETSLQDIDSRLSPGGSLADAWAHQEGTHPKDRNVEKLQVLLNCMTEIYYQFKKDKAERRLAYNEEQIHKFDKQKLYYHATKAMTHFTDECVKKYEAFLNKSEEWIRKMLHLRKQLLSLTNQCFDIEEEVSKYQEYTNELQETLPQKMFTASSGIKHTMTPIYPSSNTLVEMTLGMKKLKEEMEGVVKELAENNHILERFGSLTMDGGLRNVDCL
Assay type: biochemical
Protocol: The kinase assay is performed as 384-well flashplate assay. 0.6 nM TANK binding kinase (TBK1), 800 nM biotinylated MELK-derived peptide (biotin-Ah-Ah-[…]) and 10 μM ATP (with 0.25 μCi of ^33P-ATP/well) are incubated in a total volume of 50 μl (10 mM MOPS, 10 mM magnesium acetate, 0.1 mM EGTA, 1 mM DTT, 0.02% of Brij35, 0.1% of BSA, pH 7.5) with or without test substance at 30° C. for 120 min. The reaction is stopped using 25 μl of 200 mM EDTA solution, filtered off with suction after 30 min at room temperature, and the wells are washed 3 times with 100 μl of 0.9% NaCl solution. The non-specific proportion of the kinase reaction (blank) is determined using 100 nM staurosporine. Radioactivity is measured in the Topcount. IC50 values are calculated using RS1.

Structure (SMILES)	IC50
Cn1cc(-c2cnc3[nH]cc(-c4cn(Cc5ccccc5F)nn4)c3c2)cn1 [Compound A17, 3-[1-(2-Fluorobenzyl)-1H-1,2,3-triazol-4-yl]-5-(1-methyl-1H-pyrazol-4-yl)-1H-pyrrolo-[2,3-b]pyridine]	0.5 to 1000 nM
Cn1cc(-c2cnc3[nH]cc(-c4cn(Cc5cccc(F)c5F)nn4)c3c2)cn1 [Compound A25, 3-[1-(2,3-Difluorobenzyl)-1H-1,2,3-triazol-4-yl]-5-(1-methyl-1H-pyrazol-4-yl)-1H-pyrrolo-[2,3-b]pyridine]	0.5 to 1000 nM
Cc1cccc(Cn2cc(-c3c[nH]c4ncc(-c5cnn(C)c5)cc34)nn2)c1 [Compound A7, 3-[1-(3-Methylbenzyl)-1H-1,2,3-triazol-4-yl]-5-(1-methyl-1H-pyrazol-4-yl)-1H-pyrrolo[2,3-b]pyridine]	0.5 to 1000 nM
CC(c1ccccc1C(F)(F)F)n1cc(-c2c[nH]c3ncc(-c4cnn(C)c4)cc23)nn1 (stereo not drawn) [Compound A20, 5-(1-Methyl-1H-pyrazol-4-yl)-3-{1-[1-(2-trifluoromethylphenyl)ethyl]-1H-1,2,3-triazol-4-yl}-1H-pyrrolo[2,3-b]pyridine]	0.5 to 1000 nM
Cn1cc(-c2cnc3[nH]cc(-c4cn(Cc5ccncc5)nn4)c3c2)cn1 [Compound A9, 5-(1-Methyl-1H-pyrazol-4-yl)-3-(1-pyridin-4-ylmethyl-1H-1,2,3-triazol-4-yl)-1H-pyrrolo-[2,3-b]pyridine]	0.5 to 1000 nM
Cn1cc(-c2cnc3[nH]cc(-c4cn(Cc5ccc6ncccc6c5)nn4)c3c2)cn1 [Compound A29, 6-{4-[5-(1-Methyl-1H-pyrazol-4-yl)-1H-pyrrolo[2,3-b]pyridin-3-yl]-1,2,3-triazol-1-ylmethyl}quinoline]	0.5 to 1000 nM
